Some test systems named below: A498 renal; DU-145 prostate; HOP-62 NSCLC; MOLT-4 leukemia; NCI/ADR-RES ovarian; OVCAR-3 ovarian; SNB-19 CNS; T-47D breast; UACC-257 melanoma; UACC-62 melanoma.
Common to all, as to test: inhibition of tumour cell growth, NCI panel, 48 h

Each structure is given as a SMILES string. Where “and” joins values, the source holds several entries; their conditions need not be identical. Equal entries are not always repeated.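 Method: 48-hour compound exposure of cells in 96-well plates, five concentrations, linear interpolation of endpoints. GI50 marks 50% less growth. TGI: total growth inhibition.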

`COc1ccc(-c2[nH]nc(N)c2-c2cc(OC)c3c(c2)OCO3)cc1`: the GI50 was 1.88 µM in the test with A498 renal; 5.6 µM with DU-145 prostate; 5.65 µM in the test with HOP-62 NSCLC; 3.73 µM in the test on MOLT-4 leukemia; 2.33 µM in the test with NCI/ADR-RES ovarian; 2.48 µM in the test with OVCAR-3 ovarian. The GI50 with SNB-19 CNS was 5.23 µM; with T-47D breast, 6.52 µM; with UACC-257 melanoma, 5.77 µM; in the test on UACC-62 melanoma it was 4.13 µM. In addition, the TGI in the test on A498 renal is 6.75 µM; in the test with DU-145 prostate, > 100 µM; in the test with HOP-62 NSCLC, > 100 µM; with MOLT-4 leukemia, 37.5 µM; in the test with NCI/ADR-RES ovarian it was 8.48 µM; with OVCAR-3 ovarian it was 6.05 µM. Moreover, the TGI with SNB-19 CNS, in the test with T-47D breast, with UACC-257 melanoma and with UACC-62 melanoma was > 100 µM each time.

In the case of `COc1cccc(/C=C/c2ccnc3ccccc23)c1OC`, the TGI in the test with A498 renal, with DU-145 prostate, in the test with HOP-62 NSCLC, in the test on MOLT-4 leukemia, in the test with NCI/ADR-RES ovarian and with OVCAR-3 ovarian was > 10 µM throughout. The TGI in the test on SNB-19 CNS, in the test with T-47D breast, with UACC-257 melanoma and in the test on UACC-62 melanoma was > 10 µM throughout.

On to `Nc1cc(C(F)(F)F)c(-c2cc(N3CCOCC3)nc(N3CCOCC3)n2)cn1`, for which the GI50 was 0.189 µM and 0.205 µM in the test on A498 renal; 1.22 µM and 1.79 µM in the test on DU-145 prostate; 0.385 µM and 0.793 µM in the test with HOP-62 NSCLC; 0.883 µM and 0.814 µM with MOLT-4 leukemia; 0.753 µM and 0.856 µM in the test with NCI/ADR-RES ovarian; 0.919 µM and 1.03 µM with OVCAR-3 ovarian. Further, the GI50 in the test on SNB-19 CNS was 2.28 µM and 2.71 µM; in the test with T-47D breast, 0.145 µM and 0.273 µM; in the test on UACC-257 melanoma, 0.59 µM and 0.417 µM; with UACC-62 melanoma it was 0.318 µM and 0.375 µM. Besides, the TGI was 0.713 µM and 1.09 µM in the test with A498 renal; 9.96 µM and > 33.1 µM in the test on DU-145 prostate; 4.31 µM and 4.87 µM with HOP-62 NSCLC; > 100 µM in the test on MOLT-4 leukemia; 3.45 µM and > 21.5 µM in the test on NCI/ADR-RES ovarian; 4.71 µM and 4.45 µM in the test with OVCAR-3 ovarian. Besides, the TGI was > 100 µM in the test with SNB-19 CNS; 0.77 µM and 1.31 µM in the test with T-47D breast; > 7.31 µM and 4.25 µM in the test on UACC-257 melanoma; 1.99 µM and 2.92 µM with UACC-62 melanoma.

Take `COc1cc(/C=C/C(=O)N2CCC=CC2=O)cc(OC)c1OC`: the GI50 in the test with A498 renal is 14.9 µM; in the test on DU-145 prostate it was 4.05 µM; with HOP-62 NSCLC, 6.93 µM; in the test with MOLT-4 leukemia, 2.74 µM; in the test with NCI/ADR-RES ovarian, 3.41 µM; in the test with OVCAR-3 ovarian it was 3.34 µM. Besides, the GI50 is 5.55 µM in the test with SNB-19 CNS, 2.56 µM in the test with T-47D breast, 2.23 µM in the test with UACC-257 melanoma and 1.85 µM with UACC-62 melanoma. Besides, the TGI in the test with A498 renal came out at 29.4 µM; in the test on DU-145 prostate, 18.6 µM; with HOP-62 NSCLC, 22.2 µM; in the test with MOLT-4 leukemia, 9.48 µM; with NCI/ADR-RES ovarian, 47.9 µM; in the test with OVCAR-3 ovarian, 11.9 µM. Also, the TGI came to 20.6 µM in the test with SNB-19 CNS, 8.51 µM in the test on T-47D breast, 5.37 µM with UACC-257 melanoma and 3.82 µM in the test on UACC-62 melanoma.

For the compound `CCN(CC)c1ccc2nc3c4ccccc4c(=O)cc-3n(-c3ccccc3)c2c1`, the GI50 in the test with A498 renal was 0.653 µM; with DU-145 prostate, 2.66 µM; with HOP-62 NSCLC, 1.08 µM; with MOLT-4 leukemia, 2.36 µM; with NCI/ADR-RES ovarian, 2.34 µM; in the test with OVCAR-3 ovarian it was 1.16 µM. The GI50 in the test on SNB-19 CNS was 3.32 µM; with T-47D breast it was 0.194 µM; in the test with UACC-257 melanoma it was 1.12 µM; in the test with UACC-62 melanoma, 1.36 µM. For the same compound, the TGI with A498 renal came out at 4.59 µM; with DU-145 prostate, 9.75 µM; in the test with HOP-62 NSCLC it was 3.6 µM; in the test on MOLT-4 leukemia, 7.48 µM; with NCI/ADR-RES ovarian, 7.86 µM; in the test with OVCAR-3 ovarian, 3.85 µM. The TGI in the test on SNB-19 CNS was > 100 µM; in the test with T-47D breast it was 0.87 µM; in the test on UACC-257 melanoma, 2.9 µM; with UACC-62 melanoma it was 4.31 µM.

With `O=Cc1c(-c2ccccc2)[nH]c2ccccc2c1=O`, the TGI with A498 renal, with DU-145 prostate, with HOP-62 NSCLC, in the test with MOLT-4 leukemia, in the test with NCI/ADR-RES ovarian and with OVCAR-3 ovarian was > 100 µM each time. The TGI with SNB-19 CNS, in the test on T-47D breast, in the test on UACC-257 melanoma and with UACC-62 melanoma was > 100 µM in each case.

Turning to `CCOC(=O)/C(C#N)=C1\SS/C(=C(/C#N)C(=O)OCC)S1`, the GI50 in the test with A498 renal was 63.9 µM; in the test with DU-145 prostate, 18.2 µM; in the test with HOP-62 NSCLC, 26.1 µM; in the test with MOLT-4 leukemia it was 10.8 µM; in the test on NCI/ADR-RES ovarian it was 25.8 µM; in the test with OVCAR-3 ovarian, 14.5 µM. Further, the GI50 is 35.8 µM with SNB-19 CNS, 17.9 µM in the test on T-47D breast, 18.3 µM in the test with UACC-257 melanoma and 15.8 µM with UACC-62 melanoma. In addition, the TGI was > 100 µM with A498 renal; 33.6 µM in the test with DU-145 prostate; 86.7 µM in the test on HOP-62 NSCLC; 57.8 µM with MOLT-4 leukemia; 65.3 µM in the test with NCI/ADR-RES ovarian; 28.8 µM with OVCAR-3 ovarian. Also, the TGI was > 100 µM in the test on SNB-19 CNS, 48.2 µM in the test with T-47D breast, 34.8 µM with UACC-257 melanoma and 32.6 µM in the test with UACC-62 melanoma.

Take `Cc1ccc(Cl)cc1NC(=O)c1cc2ccccc2cc1O`: the GI50 in the test on A498 renal is 0.369 µM; in the test on DU-145 prostate it was 0.479 µM; in the test with HOP-62 NSCLC it was 0.224 µM; in the test on MOLT-4 leukemia it was 0.558 µM; with NCI/ADR-RES ovarian it was 0.266 µM; with OVCAR-3 ovarian it was 0.313 µM. Further, the GI50 was 0.442 µM in the test on SNB-19 CNS, 1.14 µM in the test on T-47D breast, 0.277 µM in the test with UACC-257 melanoma and 0.308 µM in the test on UACC-62 melanoma. For the same compound, the TGI with A498 renal is 1.04 µM; in the test with DU-145 prostate it was > 24.7 µM; in the test on HOP-62 NSCLC, 0.673 µM; with MOLT-4 leukemia, 3.42 µM; in the test on NCI/ADR-RES ovarian, 1.27 µM; in the test with OVCAR-3 ovarian, 1.02 µM. Also, the TGI is > 40.1 µM in the test on SNB-19 CNS, 5.06 µM in the test with T-47D breast, 0.909 µM in the test with UACC-257 melanoma and 2.65 µM with UACC-62 melanoma.

The values are drawn from PubChem BioAssay (NCI).
